Measured values published in PMC5834492, “Antimycobacterial drug discovery using Mycobacteria-infected amoebae identifies anti-infectives and new molecular targets” (Scientific Reports, 2018).
Like-named read-outs stand apart in the source and are kept apart here.

Tests used:
Mtb H37Rv = system: Mtb H37Rv; set-up: method as in Sorrentino et al, 2015; settings: ref Sorrentino et al, 2015; cited from earlier work
Mtb H37Rv in THP-1 = system: Mtb H37Rv in THP-1; set-up: method as in Sorrentino et al, 2015; settings: ref Sorrentino et al, 2015, cited from earlier work; for Extracellular MIC90/ Inracellular MIC90: ratio
[1] = system: M. marinum in A. castellanii; format: cell-based, Mycobacterium marinum; settings: 10 µM
M. marinum GFP = format: cell-based, Mycobacterium marinum; settings: 10 µM; antibiotic assay
D. discoideum GFP-ABD = settings: 10 µM
M. marinum luxCDABE = format: cell-based, Mycobacterium marinum; settings: 10 µM
[2] = system: M. marinum in BV2 microglial cells; format: cell-based, Mycobacterium marinum
[3] = THP1 / Mtb H37Rv infection assay

| SMILES | Extracellular MIC90 (Mtb H37Rv) [µM] | Intracelullar MIC90 in THP-1 (Mtb H37Rv in THP-1; [3]) [µM] | Extracellular MIC90/ Inracellular MIC90 (Mtb H37Rv in THP-1) | A. castellanii / M. marinum normalised growth, control=1.00, mean [1] | M. marinum GFP normalised growth, control=1.00, mean (M. marinum GFP) | D. discoideum GFP-ABD normalised growth, control=1.00, mean (D. discoideum GFP-ABD) | M. marinum luxCDABE normalised growth, control=1.00, mean (M. marinum luxCDABE) | IC50 [2] [µM] | BV2 / M. marinum normalised growth, control=1.00, mean ([2]; 10 µM) | Intracelullar MIC90 in THP-1 (Mtb H37Rv in THP-1; Mtb H37Rv-infected THP1 cells) [µM] | Hits A. castellanii/M. marinum assay True/False [1] | anti-infective properties in A. castellanii infection assay [1] | anti-infective properties in microglial cell (BV2) infection assay ([2]; 10 µM) | hit in BV2/M. marinum assay True/False ([2]; 10 µM) | M. marinum luxCDABE normalised growth, control = 1.00, mean (M. marinum luxCDABE) |
| --- | --- | --- | --- | --- | --- | --- | --- | --- | --- | --- | --- | --- | --- | --- | --- |
| CCc1ccc(S(=O)(=O)Nc2cc(CN3CCN(CCC(C)C)CC3)ccc2C)cc1.O=C(O)C(F)(F)F.O=C(O)C(F)(F)F [SB-811137-V] | 4.7 | 5.55 | 0.85 | 1.15 | 0.94 | 0.88 | 0.18 | 5.94 | 0.85 | – | – | – | – | – | – |
| CCCCS(=O)(=O)Nc1ccc2cnn(C)c2c1 [GSK3011724A] | 1.3 | 0.21 | 6.19 | -0.32 | 0.08 | 0.99 | 0.14 | 4.44 | 0.40 | 0.21 | TRUE | strong anti-infective properties | strong anti-infective properties | TRUE | – |
| Cn1ccnc1CNCCS(=O)(=O)c1cccc(Nc2ccc(-c3cccc(F)c3)cn2)c1 [GSK1826247A] | 4.7 | 0.61 | 7.7 | 1.14 | 0.98 | 0.90 | 0.00 | 7.73 | 0.98 | – | – | – | – | – | – |
| O=C(c1cc2c(s1)CCC2)N1CCN(Cc2ccc3c(c2)OCO3)CC1 [GSK1731114A] | 5.3 | 5.55 | 0.95 | 0.92 | 0.30 | 0.44 | 0.085 | 9.43 | 0.81 | – | – | – | – | – | – |
| Cc1n[nH]c(C)c1S(=O)(=O)NCc1nc(NCCCc2ccccc2)c2ccccc2n1 [GSK2059310A] | 1.8 | 5.55 | 0.32 | 1.06 | 0.46 | 0.84 | 0.00 | 4.65 | 0.57 | – | – | – | – | – | – |
| O=C(c1cc2ccccc2o1)N1CCN(Cc2ccc3c(c2)OCO3)CC1 [GSK861337A] | 2.7 | 5.55 | 0.49 | 0.70 | 0.10 | 0.31 | 0.00 | 9.31 | 0.77 | – | – | – | – | – | – |
| COc1cc2ccccc2cc1C(=O)NCc1cccc(-c2ccccc2OC)c1 [GSK695914A] | 2.2 | 5.55 | 0.4 | 0.63 | 0.0549 | 0.98 | 0.00 | 7.82 | 0.48 | 5.55 | FALSE | – | – | TRUE | 0,00 |
| c1csc(Cc2nn3c(-c4[nH]nc5c4CCC5)nnc3s2)c1 [GSK810037A] | 2.4 | 1.85 | 1.3 | 1.03 | 0.73 | 0.76 | 0.11 | 4.8 | 0.81 | – | – | – | – | – | – |
| FC(F)(F)c1nnc2ccc(Cl)nn12 [GSK352635A] | 9.1 | 50 | 0.18 | 1.02 | 0.81 | 1.17 | 0.60 | 7.58 | 0.89 | – | – | – | – | – | – |
